In this assay the test system is Enterococcus faecium. Put plainly: microbe, parasite or virus in culture. To be noted: NCTC 7171.

In brackets after ≈: the same amount, converted by molar mass. Bounds are passed on as bounds.

Description: Antibacterial activity against Enterococcus faecium NCTC 7171 assessed as bacterial growth inhibition after 16-20 hrs by broth microdilution method

As to `CC1=C(C(N)=O)C(c2ccc(F)cc2)n2nc(SCc3ccccc3)nc2N1` (stereo not given), the MIC is 128 µg/mL (≈ 324 µM).

`COc1ccc(C2C(C(N)=O)=C(C)Nc3nc(SCc4ccccc4)nn32)cc1O` (stereo not given) returned an MIC of over 128 µg/mL.

Molecule `CCOC(=O)CSc1nc2n(n1)C(c1ccc(N(C)C)cc1)C(C(N)=O)=C(C)N2` (stereo not given) had an MIC of over 128 µg/mL.

The molecule `CC1=C(C(N)=O)C(c2ccc[nH]2)n2nc(SCc3ccccc3)nc2N1` (stereo not given) registered an MIC of over 128 µg/mL.

`CCOC(=O)C1=C(C)Nc2nc(SCc3ccc(C(=O)O)cc3)nn2C1c1cccs1` (stereo not given) came in with an MIC of over 128 µg/mL.

Molecule `CC1=C(C(N)=O)C(c2cccc(OC(F)(F)F)c2)n2nc(SCc3ccccc3)nc2N1` (stereo not given) displayed an MIC of 16 µg/mL (≈ 34.7 µM).

`COc1cc(C2C(C(=O)Nc3ccc(C)cc3C)=C(C)Nc3nc(SCc4ccccc4)nn32)ccc1O` (stereo not given): the MIC turned out to be 16 µg/mL (≈ 30.3 µM).

The molecule `COc1ccc(C2C(C(N)=O)=C(C)Nc3nc(SCc4ccccc4)nn32)cc1` (stereo not given) had an MIC of over 128 µg/mL.

In turn, `COc1ccc(C2C(C(=O)Nc3ccccc3C)=C(C)Nc3nc(SCc4cc(C)ccc4C)nn32)cc1` (stereo not given) came in with an MIC of over 128 µg/mL.

In the case of `CCc1ccc(C2C(C(N)=O)=C(C)Nc3nc(SCc4ccccc4)nn32)cc1` (stereo not given), the MIC came out at 8 µg/mL (≈ 19.7 µM).

On to `CC1=C(C(N)=O)C(c2c[nH]c3ccccc23)n2nc(SCc3ccccc3)nc2N1` (stereo not given), for which the MIC was over 128 µg/mL.

Regarding `CC1=C(C(=O)Nc2ccccc2)C(c2ccc(N(C)C)cc2)n2nc(SCc3ccccc3)nc2N1` (stereo not given), the MIC came out at 8 µg/mL (≈ 16.1 µM).

The molecule `CC1=C(C(N)=O)C(c2ccccc2C(F)(F)F)n2nc(SCc3ccccc3)nc2N1` (stereo not given) returned an MIC of over 128 µg/mL.

Turning to `CC1=C(C(N)=O)C(c2ccc(N(C)C)cc2)n2nc(SCc3ccc(OC(F)(F)F)cc3)nc2N1` (stereo not given), the MIC is over 128 µg/mL.

Regarding `CC1=C(C(N)=O)C(c2cccc(C(C)C)c2)n2nc(SCc3ccccc3)nc2N1` (stereo not given), the MIC was 16 µg/mL (≈ 38.1 µM).

In the case of `CC1=C(C(N)=O)C(c2ccc(N(C)C)cc2)n2nc(SCc3ccncc3)nc2N1` (stereo not given), the MIC was 128 µg/mL (≈ 304 µM).

Turning to `COC(=O)c1ccc(CSc2nc3n(n2)C(c2ccc(N(C)C)cc2)C(C(N)=O)=C(C)N3)cc1` (stereo not given), the MIC was over 128 µg/mL.

In the case of `CC1=C(C(N)=O)C(c2ccc(N(C)C)cc2)n2nc(N)nc2N1` (stereo not given), the MIC was over 128 µg/mL.

The molecule `CCOC(=O)C1=C(C)Nc2nc(SCc3ccccc3)nn2C1c1ccc(N(C)C)cc1` (stereo not given) gave an MIC of over 128 µg/mL.

For the molecule `CC1=C(C(N)=O)C(c2ccc(C)cc2)n2nc(SCc3ccccc3)nc2N1` (stereo not given), the MIC was over 128 µg/mL.

In turn, `CC1=C(C(N)=O)C(c2ccc(CC(C)C)cc2)n2nc(SCc3ccccc3)nc2N1` (stereo not given) yielded an MIC of 8 µg/mL (≈ 18.5 µM).

`CC1=C(C(N)=O)C(c2ccc(Cl)cc2)n2nc(SCc3ccccc3)nc2N1` (stereo not given) had an MIC of over 128 µg/mL.

On to `CC1=C(C(=O)Nc2ccc(C)cc2C)C(c2ccc(C)cc2)n2nc(SCc3cccc(C)c3)nc2N1` (stereo not given), for which the MIC was over 128 µg/mL.

Consider `CC1=C(C(N)=O)C(c2ccco2)n2nc(SCc3ccccc3)nc2N1` (stereo not given), for which the MIC was over 128 µg/mL.

The molecule `CC1=C(C(N)=O)C(c2ccc(SC(F)(F)F)cc2)n2nc(SCc3ccccc3)nc2N1` (stereo not given) yielded an MIC of over 128 µg/mL.

`CC1=C(C(N)=O)C(c2ccc([N+](=O)[O-])cc2)n2nc(SCc3ccccc3)nc2N1` (stereo not given) returned an MIC of 64 µg/mL (≈ 151 µM).

Molecule `CSc1ccc(C2C(C(N)=O)=C(C)Nc3nc(SCc4ccccc4)nn32)cc1` (stereo not given) registered an MIC of over 128 µg/mL.

Molecule `CC1=C(C(N)=O)C(c2cccnc2)n2nc(SCc3ccccc3)nc2N1` (stereo not given) showed an MIC of over 128 µg/mL.

Take `CC1=C(C(N)=O)C(c2ccccc2)n2nc(SCc3ccccc3)nc2N1` (stereo not given): the MIC is over 128 µg/mL.

Molecule `CC1=C(C(N)=O)C(c2cccs2)n2nc(SCc3ccccc3)nc2N1` (stereo not given) had an MIC of over 128 µg/mL.

As to `CC1=C(C(N)=O)C(c2ccncc2)n2nc(SCc3ccccc3)nc2N1` (stereo not given), the MIC was over 128 µg/mL.

In turn, `CC1=C(C(N)=O)C(c2ccc(N(C)C)cc2)n2nc(SCc3ccc(C(F)(F)F)cc3)nc2N1` (stereo not given) yielded an MIC of over 128 µg/mL.

As to `COc1ncccc1C1C(C(N)=O)=C(C)Nc2nc(SCc3ccccc3)nn21` (stereo not given), the MIC was 128 µg/mL (≈ 313 µM).

The molecule `CC1=C(C(N)=O)C(C2CCCCC2)n2nc(SCc3ccccc3)nc2N1` (stereo not given) displayed an MIC of over 128 µg/mL.

In turn, `CC1=C(C(=O)Nc2ccc(C)cc2C)C(c2ccc(Cl)cc2)n2nc(C(=O)OC(C)C)nc2N1` (stereo not given) came in with an MIC of 16 µg/mL (≈ 33.3 µM).

Values taken from ChEMBL document CHEMBL3576783, “Synthesis and evaluation of 1,2,4-triazolo[1,5-a]pyrimidines as antibacterial agents against Enterococcus faecium” (J Med Chem, 2015).
